Patent US9006238B2, “Pyrazolo pyridine derivatives as NADPH oxidase inhibitors” (Genkyotex SA, priority 2008, dated 2015)

How the values were obtained:
[1] = target: T1, NOX (Homo sapiens, UniProt P04839); experiment: Amplex Red measurement of extracellular hydrogen peroxide (NOX activity) using DMSO-differentiated HL60 cells; type: cell-based; conditions: for IC50 / Inhibition (%) of NOX activity: DMSO-differentiated HL60 cells; for Inhibition (%) of NOX activity: test concentration not given
T1 construct: HL60 differentiation to the neutrophil phenotype was triggered by adding Me2SO; endogenous in cells; host or cells: HL-60 cells differentiated with DMSO (1.25% v/v, 6 days) to the neutrophil phenotype
T1 sequence (P04839 1-570): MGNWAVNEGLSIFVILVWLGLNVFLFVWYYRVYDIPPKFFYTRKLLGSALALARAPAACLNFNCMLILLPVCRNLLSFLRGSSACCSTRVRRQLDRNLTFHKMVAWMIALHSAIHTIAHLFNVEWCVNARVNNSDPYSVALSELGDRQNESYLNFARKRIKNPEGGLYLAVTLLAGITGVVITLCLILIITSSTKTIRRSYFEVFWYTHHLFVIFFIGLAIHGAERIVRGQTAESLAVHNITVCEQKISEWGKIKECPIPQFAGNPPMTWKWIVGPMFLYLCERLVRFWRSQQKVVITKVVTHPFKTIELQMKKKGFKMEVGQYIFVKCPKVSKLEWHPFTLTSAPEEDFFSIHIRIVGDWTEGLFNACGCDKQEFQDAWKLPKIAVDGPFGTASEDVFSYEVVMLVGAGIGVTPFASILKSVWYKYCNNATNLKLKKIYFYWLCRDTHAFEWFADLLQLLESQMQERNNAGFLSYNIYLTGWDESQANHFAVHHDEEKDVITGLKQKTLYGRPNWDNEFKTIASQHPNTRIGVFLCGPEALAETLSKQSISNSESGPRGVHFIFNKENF
T1 sequence (P13498 1-195 partner): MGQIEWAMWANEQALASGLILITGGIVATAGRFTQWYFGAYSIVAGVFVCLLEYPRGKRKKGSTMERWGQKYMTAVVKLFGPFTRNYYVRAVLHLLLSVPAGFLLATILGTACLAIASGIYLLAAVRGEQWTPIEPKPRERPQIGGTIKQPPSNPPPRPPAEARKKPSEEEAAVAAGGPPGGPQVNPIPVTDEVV
Procedure: (§1) The activity of the compounds according to the invention may be tested for their activity in the inhibition or reduction of formation of reactive oxygen species (ROS) from oxygen in cells. The activity of the compounds is tested in the following cell cultures by different techniques such as nitroblue tetrazolium, Amplex Red, Chemiluminescence (Luminol) and 2′,7′-dichlorodihydrofluorescein diacetate (H2DCF-DA) according to the protocols detailed below.
Human acute myeloid leukemia cell line HL-60 was cultured in RPMI 1640 (Invitrogen) supplemented with 10% heat-inactivated calf serum, 2 mM glutamine, 100 U/mL penicillin (Sigma), and 100 μg streptomycin (Sigma) at 37° C. under a humidified atmosphere of 5% CO2. HL60 differentiation to the neutrophil phenotype was triggered by adding Me2SO (final concentration 1.25% v/v for 6 days) to the culture medium.
(§2) Extracellular hydrogen peroxide was measured using Amplex UltraRed (Molecular Probes). Cells were trypsinized (1× Trypsin-EDTA), collected by centrifugation, and resuspended in HBSS supplemented with 1% glucose. Cells were seeded into black 96-well plates at a density of 50,000 cells in 200 μl testing buffer (HBSS 1% glucose containing 0.005 U/mL horseradish peroxidase (Roche) and 50 μM Amplex Red in the presence or absence of compounds according to the invention. As a control, DPI was included at a final concentration of 10 μM The plates were placed in the fluorescent Optima Fluorescent plate reader and kept at 37° C. during 20 min. Fluorescence was measured for […] with excitation and emission wavelengths of 544 nm and 590 nm respectively. NOX activities were expressed as % of the activity in control cells. Residual activity of DPI-treated cells was usually <10%.
The Table 2 below summarizes the percentage of inhibition of NOX activity as measured by Amplex Red using DMSO-differentiated HL60 cells as described above:
The Table 3 below summarizes the IC50 of NOX activity as measured by Amplex Red using DMSO-differentiated HL60 cells as described above: […]

[2] = system: NOX; experiment: Nitroblue tetrazolium (NBT) test of intracellular and extracellular superoxide in cell cultures; type: cell-based, human; conditions: DPI final concentration 10 μM, 2.5 h
Procedure: as §1
Human microglia cell line (HMC3, human microglia clone 3) (Janabi et al., 1995, Neurosci. Lett. 195:105) were cultured in MEM (Eagle's minimum essential medium) containing 10% FBS with 50 U/ml penicillin G sodium 50 μg/ml streptomycin sulfate, and incubated at 37° C. for 24 hours. IFN-γ (human IFN-γ, Roche. 11 040 596 001) was added to the culture medium for a final concentration of 10 ng/ml 24 h, before detection of O2^− formation. […]
Intracellular and extracellular superoxide was measured by a colorimetric technique using a quantitative nitroblue tetrazolium (NBT) test. SOD-inhibitable conversion of NBT to formazan, a fine blue precipitate, in the presence of superoxide anion was measured using Fluostar Optima spectrometer (BMG labtech). […] The absorption was measured at 630 nm. For calculation, the absorbance at 630 nm was normalized for each individual well. […] NOX activities were expressed as % of the activity in control cells. […]

[3] = system: NOX; experiment: Chemiluminescence (luminol) measurement of ROS in cell cultures; type: cell-based, human; conditions: 60 minutes at 37° C.
Procedure: as §1, §2
ROS was measured using the chemiluminescent probe luminol. […]

[4] = system: NOX; experiment: H2DCF-DA (DCF fluorescence) measurement of ROS in HUVEC stimulated with TGF-β; type: cell-based, human; conditions: TGF-β stimulation
Procedure: as §1, with “below. […]” for “below.”
HUVEC were plated on coverslips and made quiescent overnight in 0.5% BSA before stimulation with TGF-β. […] DCF fluorescence was visualized at an excitation wavelength of 488 nm and emission at 515 to 540 nm. […] For calculation, the absorbance at […] was normalized to absorbance at […] for each individual well. […] NOX activities were expressed as % of the activity in control cells. […]

SMILES | Residual activity of DPI-treated cells (NOX activity as % of the activity in control cells) ([1]; DPI final concentration 10 μM) | IC50 [1] | Inhibition (%) of NOX activity [1] | Residual activity of DPI-treated cells (NOX activity as % of the activity in control cells) [2] | Residual activity of DPI-treated cells (NOX activity as % of the activity in control cells) [3] | Residual activity of DPI-treated cells (NOX activity as % of the activity in control cells) [4]
Cc1c2c(=O)n(C)[nH]c2cc(=O)n1CCN1CCOCC1 [Compound 16, 2,4-Dimethyl-5-(2-Morpholin-4-Ylethyl)-1H-Pyrazolo[4,3-c]Pyridine-3,6(2H,5H)-Dione] |  | < 5 µM | 74% |  |  | 
CC(=O)N1CCC(Cn2c(-c3ccc(Cl)cc3)c3c(=O)n(C)[nH]c3cc2=O)CC1 [Compound 98] |  |  | 92% |  |  | 
Cc1c2c(=O)n(C)[nH]c2cc(=O)n1Cc1ccccn1 [Compound 4, 2,4-Dimethyl-5-(Pyridin-2-Ylmethyl)-1H-Pyrazolo[4,3-c]Pyridine-3,6(2H,5H)-Dione] |  | < 5 µM | 65% |  |  | 
COc1cccc(Cn2c(C)c3c(=O)n(CCN4CCOCC4)[nH]c3cc2=O)c1 [Compound 83, 5-(3-methoxybenzyl)-4-methyl-2-(2-morpholin-4-ylethyl)-1H-pyrazolo[4,3-c] pyridine-3,6(2H,5H)-dione] |  | < 5 µM | 89% |  |  | 
Cc1c2c(=O)n(Cc3ccccc3)[nH]c2cc(=O)n1-c1cccc(OC(F)(F)F)c1 [Compound 3, 2-Benzyl-4-Methyl-5-[3-(Trifluoromethoxy)Phenyl]-1H-Pyrazolo[4,3-c]Pyridine-3,6(2H,5H)-Dione] |  | < 5 µM | 63% |  |  | 

Further lines, with some results ahead:

Residual activity of DPI-treated cells (NOX activity as % of the activity in control cells) ([1]; DPI final concentration 10 μM) | IC50 [1] | Inhibition (%) of NOX activity [1] | SMILES | Residual activity of DPI-treated cells (NOX activity as % of the activity in control cells) [2] | Residual activity of DPI-treated cells (NOX activity as % of the activity in control cells) [3] | Residual activity of DPI-treated cells (NOX activity as % of the activity in control cells) [4]
< 10% |  |  | c1ccc([I+]c2ccccc2)cc1 [DPI, Diphenyl-iodonium] | < 10% | < 10% | < 10%
 | < 5 µM | 77% | Cc1c2c(=O)n(CCc3ccccc3)[nH]c2cc(=O)n1Cc1ccccc1CN1CCOCC1 [Compound 30, 4-methyl-5-[2-(morpholin-4-ylmethyl)benzyl]-2-(2-phenylethyl)-1H-pyrazolo[4,3-c]pyridine-3,6(2H,5H)-dione] |  |  | 
 | < 5 µM | 75% | COCCn1[nH]c2cc(=O)n(Cc3ccccc3CN3CCOCC3)c(C)c2c1=O [Compound 18, 2-(2-methoxyethyl)-4-methyl-5-[2-(morpholin-4ylmethyl)benzyl]-1H-pyrazolo[4,3-c]pyridine-3,6(2H,5H)-dione] |  |  | 
